Test results reported in patent US4495196A, “Antiinflammatory 4,5-diaryl-α-polyfluoroalkyl-1H-pyrrole-2-methanols and method for use thereof” (E. I. Du Pont de Nemours and Company, priority 1981, dated 1985).
Read-outs that look alike come from different tables or passages of the source.

What was measured:
[1] = test system: adjuvant-induced arthritis in rats; test: Established Adjuvant-Induced Arthritis in Rats; format: in vivo, Lewis (Wistar) male rats; settings: for ED50: 504 h, read-out: Adjuvant Arthritis ED50
[2] = test system: phenylquinone-induced writhing in mice; test: Phenylquinone Writhing Test; format: in vivo, female white mice; settings: mouse; oral; effective analgesic dose for 50% of the mice; observed 10 minutes from 30 minutes after dosing
Method: Phenylquinone Writhing Test
The phenylquinone writhing test, modified from Siegmund, et al., Proc. Soc. […] A test compound suspended in 1% methylcellulose was given orally to fasted (17-21 hours) female white mice, 5-20 animals per double blind test. Aqueous (0.01% phenyl-p-benzoquinone) phenylquinone was injected intraperitoneally at 24 minutes later using 0.20 ml per mouse.

[3] = rat, oral gavage once daily for 7 days (days 14-20), ED50% for decrease from control paw volume, estimated by inspection, day 21
[4] = 168 h, rat, oral once daily for 7 days, read-out: percent reduction in paw volume at the indicated dose

Q: For `OC1(c2cc(-c3ccc(F)cc3)c(-c3ccc(F)cc3)[nH]2)C(F)(F)C(F)(F)C1(F)Br` (centres unmarked) [Example 21], which ED50 [1, 3] is on record?
A: 20 mg/kg

Q: What about the ED50 [2] of the same compound?
A: > 108 mg/kg

Q: Which ED50 [1, 3] does the source give for `OC(c1cc(-c2ccccc2)c(-c2ccc(Cl)c(Cl)c2)[nH]1)(C(F)(F)F)C(F)(F)F` [Example 4] here?
A: 70 mg/kg

Q: And the ED50 [2]?
A: > 108 mg/kg

Q: What does the source list for `OC1(c2cc(-c3ccc(F)cc3)c(-c3ccc(F)cc3)[nH]2)C(F)(F)C(F)(F)C1(F)Cl` (centres unmarked) [Example 20]?
A: ED50 [1, 3]: 4.5 mg/kg; ED50 [2]: > 108 mg/kg

Q: `Fc1ccc(-c2cc(C(OCc3ccccc3)(C(F)(F)F)C(F)(F)F)[nH]c2-c2ccc(F)cc2)cc1` [Example 33, 2,3-Bis(4-fluorophenyl)-5-[2,2,2-trifluoro-1-(phenylmethoxy)-1-(trifluoromethyl)ethyl]-1H-pyrrole] was tested. Which inhibition in vivo at 25 mg/kg [1, 4] did it give?
A: 35%

Q: What does the source list for `OC(c1cc(-c2ccc(F)cc2)c(-c2ccc(F)cc2)[nH]1)(C(F)(F)F)C(F)(F)Cl` (centres unmarked) [Example 19]?
A: ED50 [1, 3]: 2 mg/kg; ED50 [2]: > 108 mg/kg

Q: What does the source list for `OC1(c2cc(-c3ccc(F)cc3)c(-c3ccc(F)cc3)[nH]2)C(F)(F)C(F)(F)C1(F)F` [Example 16]?
A: ED50 ([1]; Rattus norvegicus, po): 1.3 mg/kg; ED50 [2]: > 108 mg/kg

Q: `CN(C)c1ccc(-c2[nH]c(C(O)(C(F)(F)F)C(F)(F)F)cc2-c2ccc(F)cc2)cc1` [Example 10, 4-(4-fluorophenyl)-5-(4-dimethylaminophenyl)-α,α-bis(trifluoromethyl)-1H-pyrrole-2-methanol] was tested. Which ED50 [1, 3] did it give?
A: 2.2 mg/kg

Q: And the ED50 [2]?
A: > 108 mg/kg

Q: For `OC(c1cc(-c2ccc(Cl)cc2)c(-c2ccc(Cl)cc2)[nH]1)(C(F)(F)F)C(F)(F)F` [Example 1, 4,5-Bis(4-chlorophenyl)-α,α-bis(trifluoromethyl)-1H-pyrrole-2-methanol], which ED50 ([1]; Rattus norvegicus, po) is on record?
A: 7 mg/kg

Q: What about the ED50 [2] of the same compound?
A: > 108 mg/kg

Q: How did the ED50 [1, 3] turn out when `COc1ccc(-c2cc(C(O)C(F)(F)F)[nH]c2-c2ccc(OC)cc2)cc1` (stereo not drawn) [Example 30, 4,5-Bis(4-methoxyphenyl)-α-(trifluoromethyl)-1H-pyrrole-2-methanol] was run?
A: 5.5 mg/kg

Q: What about the ED50 [2] of the same compound?
A: 13.4 mg/kg

Q: `OC(c1cc(-c2ccc(F)cc2)c(-c2ccc(F)cc2)[nH]1)(C(F)(F)F)C(F)(F)F` [Example 3, 4,5-bis(4-fluorophenyl)-α,α-bis(trifluoromethyl)-1H-pyrrole-2-methanol] was tested. Which ED50 [1, 3] did it give?
A: 3.5 mg/kg

Q: And the ED50 [2]?
A: > 108 mg/kg

Q: For `CC(O)(c1cc(-c2ccc(F)cc2)c(-c2ccc(F)cc2)[nH]1)C(F)(F)C(F)(F)F` (centres unmarked) [Example 38], which ED50 [1, 3] is on record?
A: 3.1 mg/kg

Q: And the ED50 [2]?
A: > 108 mg/kg

Q: Which results are given for `OC(c1cc(-c2ccc(F)cc2)c(-c2ccc(F)cc2)[nH]1)C(F)(F)C(F)(F)F` (centres unmarked) [Example 37]?
A: ED50 [1, 3]: 2.9 mg/kg; ED50 [2]: 103 mg/kg

Q: Which results are given for `Cn1c(C(OC(=O)c2ccccc2)(C(F)(F)F)C(F)(F)F)cc(-c2ccc(F)cc2)c1-c1ccc(F)cc1` [Example 35, 4,5-Bis(4-fluorophenyl)-1-methyl-α,α-bis(trifluoromethyl)-1H-pyrrole-2-methanol, Benzoate]?
A: inhibition in vivo at 27 mg/kg [1, 4]: 22%; ED50 [2]: > 108 mg/kg

Q: For `OC(c1cc(-c2ccc(F)cc2)c(-c2cccnc2)[nH]1)(C(F)(F)F)C(F)(F)F` [Example 11], which inhibition in vivo at 15 mg/kg ([1]; 168 h, rat, oral once daily for 7 days, dose 15 mg/kg, read-out: percent reduction in paw volume at the indicated dose) is on record?
A: 47%

Q: What about the ED50 [2] of the same compound?
A: > 108 mg/kg

Q: How did the ED50 [1, 3] turn out when `Cc1c(C(O)(C(F)(F)F)C(F)(F)F)[nH]c(-c2ccc(F)cc2)c1-c1ccc(F)cc1` [Example 6] was run?
A: 2.8 mg/kg

Q: And the ED50 [2]?
A: > 135 mg/kg

Q: How did the inhibition in vivo at 27 mg/kg [1, 4] turn out when `CS(=O)(=O)c1ccc(-c2[nH]c(C(O)(C(F)(F)F)C(F)(F)F)cc2-c2ccc(F)cc2)cc1` [Example 13] was run?
A: 22%

Q: What about the ED50 [2] of the same compound?
A: > 108 mg/kg

Q: With `OC(c1cc(-c2ccc(F)cc2)c(-c2ccc(F)cc2)[nH]1)(C(F)F)C(F)(F)F` (centres unmarked) [Example 18] as the compound, how does the ED50 [1, 3] read?
A: 4 mg/kg

Q: What about the ED50 [2] of the same compound?
A: > 108 mg/kg

Q: For `COc1ccc(-c2cc(C(O)(C(F)(F)F)C(F)(F)F)[nH]c2-c2ccc(OC)cc2)cc1` [Example 8], which ED50 [1, 3] is on record?
A: 4 mg/kg

Q: What about the ED50 [2] of the same compound?
A: 5.2 mg/kg

Q: Which ED50 [1, 3] does the source give for `Cc1ccc(-c2cc(C(O)(C(F)(F)F)C(F)(F)F)[nH]c2-c2ccc(C)cc2)cc1` [Example 9] here?
A: 8 mg/kg

Q: What about the ED50 [2] of the same compound?
A: > 108 mg/kg

Q: `OC(c1cc(-c2ccc(F)cc2)c(-c2ccc(F)cc2)[nH]1)C(F)(F)C(F)(F)C(F)(F)F` (centres unmarked) [Example 49] was tested. Which ED50 ([1]; Rattus norvegicus, po) did it give?
A: 7 mg/kg

Q: And the ED50 [2]?
A: > 108 mg/kg

Q: Which results are given for `CC(=O)OC(c1cc(-c2ccc(F)cc2)c(-c2ccc(F)cc2)n1C)(C(F)(F)F)C(F)(F)F` [Example 34, 4,5-Bis(4-fluorophenyl)-1-methyl-α,α-bis(trifluoromethyl)-1H-pyrrole-2-methanol, Acetate]?
A: ED50 [1, 3]: 2.5 mg/kg; ED50 [2]: > 108 mg/kg

Q: With `CC(O)(c1cc(-c2ccc(F)cc2)c(-c2ccc(F)cc2)[nH]1)C(F)(F)F` (centres unmarked) [Example 50] as the compound, how does the inhibition in vivo at 9 mg/kg ([1]; 168 h, rat, oral once daily for 7 days, dose 9 mg/kg, read-out: percent reduction in paw volume at the indicated dose) read?
A: 47%

Q: And the ED50 [2]?
A: > 108 mg/kg

Q: Which ED50 ([1]; Rattus norvegicus, po) does the source give for `OC(c1cc(-c2ccc(F)cc2)c(-c2ccc(F)cc2)[nH]1)(C(F)(F)Cl)C(F)(Cl)Cl` (centres unmarked) [Example 22] here?
A: 7 mg/kg

Q: And the ED50 [2]?
A: > 108 mg/kg

Q: How did the inhibition in vivo at 81 mg/kg ([1]; 168 h, rat, oral once daily for 7 days, dose 81 mg/kg, read-out: percent reduction in paw volume at the indicated dose) turn out when `OC(c1cc(-c2ccccc2)c(-c2ccccc2)[nH]1)(C(F)(F)F)C(F)(F)F` [Example 2] was run?
A: 42%

Q: And the ED50 [2]?
A: 135 mg/kg

Q: For `OC(c1cc(-c2ccc(F)cc2)c(-c2ccc(F)cc2)[nH]1)(C(F)(F)Cl)C(F)(F)Cl` [Example 17], which ED50 [1, 3] is on record?
A: 6.5 mg/kg

Q: And the ED50 [2]?
A: > 108 mg/kg

Q: Which ED50 [1, 3] does the source give for `CSc1ccc(-c2[nH]c(C(O)(C(F)(F)F)C(F)(F)F)cc2-c2ccc(F)cc2)cc1` [Example 12] here?
A: 9 mg/kg

Q: And the ED50 [2]?
A: > 108 mg/kg

Q: Which results are given for `COc1ccc(-c2cc(C(C)(O)C(F)(F)F)[nH]c2-c2ccc(OC)cc2)cc1` (stereo not drawn) [Example 31, 4,5-Bis(4-methoxyphenyl)-α-methyl-α-(trifluoromethyl)-1H-pyrrole-2-methanol]?
A: ED50 [1, 3]: 1.25 mg/kg; ED50 [2]: 23 mg/kg

Q: Which ED50 [1, 3] does the source give for `OC(c1cc(-c2ccc(F)cc2)c(-c2ccc(Br)cc2)[nH]1)(C(F)(F)F)C(F)(F)F` [Example 5] here?
A: 6 mg/kg

Q: What about the ED50 [2] of the same compound?
A: > 135 mg/kg

Q: Which inhibition in vivo at 18 mg/kg ([1]; 168 h, rat, oral once daily for 7 days, dose 18 mg/kg, read-out: percent reduction in paw volume at the indicated dose) does the source give for `OC(c1cc(-c2ccccc2)c(-c2cccnc2)[nH]1)(C(F)(F)F)C(F)(F)F` [Example 7] here?
A: 31%

Q: And the ED50 [2]?
A: 78 mg/kg

Q: With `OC(c1cc(-c2ccc(F)cc2)c(-c2ccc(F)cc2)[nH]1)C(F)(F)F` (stereo not drawn) [Example 29, 4,5-Bis(4-fluorophenyl)-α-(trifluoromethyl)-1H-pyrrole-2-methanol] as the compound, how does the ED50 [1, 3] read?
A: 11 mg/kg

Q: And the ED50 [2]?
A: > 108 mg/kg

Q: For `Cn1c(C(O)(C(F)(F)F)C(F)(F)F)cc(-c2ccc(F)cc2)c1-c1ccc(F)cc1` [Example 28, 4,5-Bis(4-fluorophenyl)-1-methyl-α,α-bis(trifluoromethyl)-1H-pyrrole-2-methanol], which ED50 [1, 3] is on record?
A: 0.66 mg/kg

Q: What about the ED50 [2] of the same compound?
A: 45 mg/kg

Q: For `COC(c1cc(-c2ccc(F)cc2)c(-c2ccc(F)cc2)n1C)(C(F)(F)F)C(F)(F)F` [Example 32, 2,3-Bis(4-fluorophenyl)-1-methyl-5-[2,2,2-trifluoro-1-methoxy-1-(trifluoromethyl)ethyl]-1H-pyrrole], which ED50 [1, 3] is on record?
A: 5.5 mg/kg

Q: And the ED50 [2]?
A: > 108 mg/kg

Q: What does the source list for `COC(=O)OC(c1cc(-c2ccc(F)cc2)c(-c2ccc(F)cc2)n1C)(C(F)(F)F)C(F)(F)F` [Example 36, 4,5-Bis(4-fluorophenyl)-1-methyl-α,α-bis(trifluoromethyl)-1H-pyrrole-2-methanol, Methylcarbonate]?
A: inhibition in vivo at 25 mg/kg [1, 4]: 46%; ED50 [2]: > 108 mg/kg
